# Patent KR20210110252A, “폴리펩티드를 포함하는 비알코올성 지방간 질환의 예방 또는 치료용 약학 조성물” (㈜ 디앤디파마텍, priority 2019, dated 2021)
# Where no end group is shown, it is not given here. [ ]: non-standard residue; d: D form. Aib = CC(C)(N)C(=O)O
# What was measured:
# [1] = tested on: C57BL/6 마우스, high fat diet NAFLD model; test: In vivo activity 1: NAFLD model, C57BL/6 mice on 60% high fat diet for about 24 weeks; parameters: species or system mouse; conditions: 20 nmol/kg s.c. every second day for 2 weeks; also lower than liraglutide 100 nmol/kg daily
# 글루카곤 수용체(GCGR) = target: T1, 글루카곤 수용체(GCGR) (Homo sapiens, UniProt P47871); test: Glucagon receptor activity, cAMP Hunter eXpress GCGR CHO-K1 GPCR assay; type: cell-based; conditions: CHO-K1 cells with human glucagon receptor; 30 min at 37℃; cAMP production
# T1 construct: host or cells: CHO-K1
# T1 sequence (P47871 26-477): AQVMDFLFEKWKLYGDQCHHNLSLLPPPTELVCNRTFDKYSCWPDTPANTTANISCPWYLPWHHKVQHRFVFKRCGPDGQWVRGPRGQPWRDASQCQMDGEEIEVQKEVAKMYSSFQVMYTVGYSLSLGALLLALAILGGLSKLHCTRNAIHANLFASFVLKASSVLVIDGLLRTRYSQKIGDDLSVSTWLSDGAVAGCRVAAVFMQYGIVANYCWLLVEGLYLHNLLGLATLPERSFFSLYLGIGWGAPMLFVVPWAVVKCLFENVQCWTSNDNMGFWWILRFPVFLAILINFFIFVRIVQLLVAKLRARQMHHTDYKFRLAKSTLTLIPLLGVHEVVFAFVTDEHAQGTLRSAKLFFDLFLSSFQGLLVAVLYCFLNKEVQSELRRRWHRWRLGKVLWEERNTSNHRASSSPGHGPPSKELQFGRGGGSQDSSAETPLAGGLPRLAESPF
# [2] = target: GLP-1 수용체 (GLP-1 receptor) (Homo sapiens, UniProt P43220); conditions: read-out: GLP-1의 수용체 EC50; HEK293/CRE-Luc cells with human GLP-1 receptor; 4 h at 37℃; luciferase reporter for cAMP
# Sequence of GLP-1 수용체 (GLP-1 receptor) (P43220 24-463): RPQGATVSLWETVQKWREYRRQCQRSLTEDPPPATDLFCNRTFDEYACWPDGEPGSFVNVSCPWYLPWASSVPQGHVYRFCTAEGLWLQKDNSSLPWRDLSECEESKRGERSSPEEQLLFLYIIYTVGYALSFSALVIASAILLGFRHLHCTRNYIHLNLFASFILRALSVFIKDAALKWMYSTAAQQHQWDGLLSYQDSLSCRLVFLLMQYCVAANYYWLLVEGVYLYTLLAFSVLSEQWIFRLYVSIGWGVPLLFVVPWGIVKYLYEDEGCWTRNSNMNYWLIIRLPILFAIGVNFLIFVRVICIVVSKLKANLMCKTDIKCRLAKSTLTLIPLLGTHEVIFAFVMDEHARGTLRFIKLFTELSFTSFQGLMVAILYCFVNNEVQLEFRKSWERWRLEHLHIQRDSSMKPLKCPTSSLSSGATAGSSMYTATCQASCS
# [3] = tested on: C57BL/6 마우스, high trans-fat diet NAFLD model; test: In vivo activity 2 and 3: NAFLD model, C57BL/6 mice on high trans-fat diet (40% fat, 20% fructose, 2% cholesterol) for about 16 weeks; parameters: species or system mouse; conditions: 20 nmol/kg s.c. every third day for 4 weeks; also lower than liraglutide 53 nmol/kg daily
substance,measurement,setting,value
"실시예 2: 서열번호 2 H(Aib)QGTFTSDYSKYLDEQAAKEFVQWLMNTC polypeptide conjugated to 3중 가지형 mPEG-MAL(MW: 50 kDa) (H[Aib]QGTFTSDYSKYLDEQAAKEFVQWLMNTC; numbers in words are those of the source; also: conjugated to 3-branched mPEG-MAL 50 kDa, site not given here)","Liver steatosis, H&E histology vs PBS-treated group (Fig. 5)",[1],현저하게 감소
same,Liver weight vs PBS-treated group (Fig. 4),[1],유의적으로 감소
same,Serum cholesterol level vs PBS-treated group (Fig. 3),[1],유의적으로 감소
same,EC50,글루카곤 수용체(GCGR),47 nM
same,EC50,[2],2.12 nM
same,Hepatic triglyceride vs vehicle group (Fig. 8),[3],유의적으로 감소
same,"Liver steatosis, H&E and oil-red-O histology vs vehicle group (Fig. 9)",[3],현저하게 감소
same,Liver weight vs vehicle group (Fig. 7),[3],유의적으로 감소
same,NAFLD activity score (NAS) vs vehicle group (Fig. 10),[3],유의적으로 감소
same,Serum cholesterol level vs vehicle group (Fig. 6),[3],유의적으로 감소
